From patent US20250051327A1, “MALT-1 MODULATORS” (EXSCIENTIA AI LIMITED, priority 2020, published 2025)

target: Recombinant human MALT-1 (amino acids 340-824) (Homo sapiens (Human), UniProt Q9UDY8); experiment: MALT-1 inhibition assay (fluorogenic substrate Ac-LRSR-Rh110-DP); format: biochemical; settings: recombinant human MALT-1, substrate Ac-LRSR-Rh110-DP
Description: MALT-1 paracaspase activity was measured using the fluorogenic substrate Ac-LRSR-Rh110-DP (purchased from Biosantan GmbH). […] The reaction was initiated by addition of substrate. Final concentrations of MALT-1 and substrate were 3 nM and 10 μM respectively. Reactions were incubated in the dark for 60 minutes at 25° C. […] Percent inhibition values were calculated from relative fluorescence units at different doses and fitted to a 4-parameter logistic curve to determine IC50 values (see Table 1).

Sequence of Recombinant human MALT-1 (amino acids 340-824) (Q9UDY8 340-824): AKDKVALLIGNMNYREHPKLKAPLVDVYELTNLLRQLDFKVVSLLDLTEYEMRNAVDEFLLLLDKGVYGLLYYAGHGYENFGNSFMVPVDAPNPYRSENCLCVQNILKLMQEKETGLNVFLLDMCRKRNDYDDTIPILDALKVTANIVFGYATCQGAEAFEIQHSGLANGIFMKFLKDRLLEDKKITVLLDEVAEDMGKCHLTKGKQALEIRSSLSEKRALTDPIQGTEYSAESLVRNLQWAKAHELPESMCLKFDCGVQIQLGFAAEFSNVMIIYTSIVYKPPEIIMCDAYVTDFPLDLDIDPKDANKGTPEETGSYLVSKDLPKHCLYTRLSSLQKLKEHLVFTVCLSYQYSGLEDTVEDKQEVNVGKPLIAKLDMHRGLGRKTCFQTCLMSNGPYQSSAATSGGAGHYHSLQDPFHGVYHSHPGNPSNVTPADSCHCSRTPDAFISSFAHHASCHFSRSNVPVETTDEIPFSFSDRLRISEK

Q: `CN(C(=O)[C@@H]1CNC(=O)O1)[C@@H](c1ccc(N2CCCc3c2cnc2cc(Cl)nn32)cc1)C(F)(F)F` (single isomer, unassigned) [CPD0075573] was tested. Which IC50 did it give?
A: Its IC50 is 197 nM.

Q: How did the IC50 turn out when `COc1ccc2ncc(Nc3ccc([C@H](N(C)C(=O)C4CCN(C(C)=O)CC4)C(F)(F)F)cc3)c([C@H]3CCOC3)c2n1` [CPD0082479] was run?
A: Its IC50 is 111 nM.

system: IL-2 secretion by human effector memory T cells (TEM); experiment: Effector memory T cells IL-2 release assay; format: cell-based; settings: T-cell; human CD4+ effector memory T cells, CD3/CD28 bead stimulation, 24 h; read-out: CD4TC IL2 IC50
Description: Effector Memory T Cells IL-2 Release Assay
Test compound-mediated inhibition of NFκB signalling in T cells was assessed by quantification of the IL-2 secretion by human effector memory T cells (TEM) upon treatment and stimulation. Human TEM cells were isolated from buffy coats of healthy donors obtained from the French blood bank. First, peripheral blood mononuclear cells (PBMC) were purified from buffy coats diluted 1:1 with DPBS (Gibco, cat #14190-094) by Pancoll (PAN BIOTECH, cat #P04-60500) density gradient centrifugation at 400×g for 20 minutes. TEM cells were further enriched by negative immuno-magnetic cell sorting using a human CD4+ Effector Memory T Cell Isolation Kit (Miltenyi, cat #130-094-125) according to the manufacturer's instructions. Aliquots of 3×10E6 purified TEM cells were kept frozen in Cryo-SFM medium (PromoCell, cat #C-29912) in gas phase nitrogen until used. Cell purity was verified by flow cytometry analysis of 200 000 PFA-fixed cells previously labelled with monoclonal antibodies anti-CD4-PerCP-Cy5.5 (BD Pharmigen, cat #332772), anti-CD8-V500 (BD Biosciences, cat #561617), anti-CD14-Pacific Blue (Biolegend, cat #325616), anti-CD45 RA-FITC (Biolegend, cat #304106) and anti-CCR7-APC (in CD4+ Effector Memory T Cell Isolation Kit, Miltenyi, cat #130-094-125).
TEM cells were resuspended in complete RPMI medium composed of: RPMI 1640 (Gibco, cat #31870-025), 10% heat inactivated fetal bovine serum (Sigma, cat #F7524), 2 mM GlutaMAX (Gibco, cat #35050-038), 1 mM sodium pyruvate 100× (Gibco, cat #11360-039), 1% MEM non-essential amino acids solution (Gibco, cat #11140-035) and 100 U/mL penicillin, 100 μg/mL streptomycin (Sigma-Aldrich, cat #11074440001). 5,000 cells per well were plated onto flat clear bottom 384 well plates (Corning, cat #3770). 5,000 Dynabeads Human T-Activator CD3/CD28 (Gibco, cat #11132D) were added to each well for cell stimulation. Finally, 10 doses of test compound, originally prepared in DMSO by serial semi-log step dilution, were also added to cells in triplicate wells. Final DMSO concentration in wells was 0.1% in a total volume of 100 μL complete medium. Plates were incubated for 24 h at 37° C. in 5% CO2 atmosphere. After incubation, cell suspensions were centrifuged at 400×g and culture supernatants were recovered and stored at −80° C. Cell viability was assessed by flow cytometry after staining the cells with Fixable Viability Dye eFluor 780 (Invitrogen, cat #65-0865-14). IL-2 levels were determined in cell supernatants using an HTRF human IL-2 detection kit (Cisbio, cat #62HIL02PEH). IL-2 data at the different compound doses were fitted to a 4-parameter logistic curve to determine IC50 values, corresponding to the compound concentration leading to 50% reduction of the maximal IL-2 levels observed in each experiment. Viability data were analysed similarly to exclude cytotoxicity as a cause of IL-2 decrease (see Table 1).

Q: How did the IC50 turn out when `CN(C(=O)[C@H]1CC[S@](=N)(=O)CC1)[C@@H](c1ccc(N2CC(C)(C)Cc3c2cnc2cc(Cl)nn32)cc1)C(F)(F)F` [CPD0073497, (1rel r,4rel r)-N-[(1S)-1-(4-{4-chloro-12,12-dimethyl-2,3,7,10-tetraazatricyclo[7.4.0.0^2,6]trideca-1(9),3,5,7-tetraen-10-yl}phenyl)-2,2,2-trifluoroethyl]-1-imino-N-methyl-1-oxo-1λ^6-thiane-4-carboxamide] was run?
A: Its IC50 is 183 nM.

Q: For `COC[C@@H]1CCN(c2ccc([C@H](N(C)C(=O)C3CCS(=O)(=O)CC3)C(F)(F)F)cc2)c2cnc3cc(Cl)nn3c21` [CPD0073503, N-[(1S)-1-[4-[(13rel-R)-4-chloro-13-(methoxymethyl)-2,3,7,10-tetrazatricyclo[7.4.0.0^2,6]trideca-1(9),3,5,7-tetraen-10-yl]phenyl]-2,2,2-trifluoro-ethyl]-N-methyl-1,1-dioxo-16-thiane-4-carboxamide], which IC50 is on record?
A: Its IC50 is 209 nM.

Q: Which IC50 does the source give for `COc1ccc2ncc(Nc3ccc([C@H](N(C)C(=O)C4CCN(C(C)=O)CC4)C(F)(F)F)cc3)c([C@H](C)OC)c2n1` (relative stereo) [CPD0074559, 1-acetyl-N-methyl-N-[(1S)-2,2,2-trifluoro-1-[4-[6-methoxy-4-[(1 rel S)-1-methoxyethyl]-1,5-naphthyridin-3-yl]amino]phenyl]ethyl]piperidine-4-carboxamide] here?
A: The IC50 was 27 nM.

Q: Which IC50 does the source give for `C[C@H]1CCN(c2ccc([C@H](N(C)C(=O)[C@H]3CC[S@@](=N)(=O)CC3)C(F)(F)F)cc2)c2cnc3cc(F)nn3c21` (relative stereo) [CPD0074554, (1rel r, 4rel r)1-imino-N-methyl-1-oxo-N-[(1S)-2,2,2-trifluoro-1-[4-[(13 rel S)-4-fluoro-13-methyl-2,3,7,10-tetrazatricyclo[7.4.0.0^2,6]trideca-1(9),3,5,7-tetraen-10-yl]phenyl]ethyl]thiane-4-carboxamide] here?
A: Its IC50 is 170 nM.

Q: How did the IC50 turn out when `CN(C(=O)C1CCS(=O)(=O)CC1)[C@@H](c1ccc(N2CCC3(CC3)c3c2cnc2cc(Cl)nn32)cc1)C(F)(F)F` [CPD0019590, N-[(1S)-1-(4-{4′-chloro-2′,3′,7′, 10′-tetraazaspiro[cyclopropane-1,13′-tricyclo[7.4.0.0^2,6]tridecane]-1′(9′),3′,5′,7′-tetraen-10′-yl}phenyl)-2,2,2-trifluoroethyl]-N-methyl-1,1-dioxo-1λ^6-thiane-4-carboxamide] was run?
A: The IC50 was 37 nM.

Q: How did the IC50 turn out when `CN(C(=O)[C@@H]1CS(=O)(=O)CC12COC2)[C@@H](c1ccc(N2CCCc3c2cnc2cc(Cl)nn32)cc1)C(F)(F)F` [CPD0073974, (8rel-R)-N-[(1S)-1-(4-{4-chloro-2,3,7,10-tetraazatricyclo[7.4.0.0^2,6]trideca-1(9),3,5,7-tetraen-10-yl}phenyl)-2,2,2-trifluoroethyl]-N-methyl-6,6-dioxo-2-oxa-6λ^6-thiaspiro[3.4]octane-8-carboxamide] was run?
A: Its IC50 is 340 nM.

Q: `COc1ccc2ncc(Nc3ccc([C@H](N(C)C(=O)C4CCS(=O)(=O)CC4)C(F)(F)F)cc3)c([C@H]3CCOC3)c2n1` [CPD0074039] was tested. Which IC50 did it give?
A: Its IC50 is 34 nM.

Q: How did the IC50 turn out when `COC[C@]1(C)CCN(c2ccc([C@H](N(C)C(=O)C3CCS(=O)(=O)CC3)C(F)(F)F)cc2)c2cnc3cc(Cl)nn3c21` [CPD0073140, N-[(1S)-1-[4-[(13rel-R)-4-chloro-13-(methoxymethyl)-13-methyl-2,3,7,10-tetrazatricyclo[7.4.0.0^2,6]trideca-1(9),3,5,7-tetraen-10-yl]phenyl]-2,2,2-trifluoro-ethyl]-N-methyl-1,1-dioxo-1λ^6-thiane-4-carboxamide] was run?
A: Its IC50 is 192 nM.

Q: Which IC50 does the source give for `COc1ccc2ncc(Nc3ccc([C@H](N(C)C(=O)[C@H]4CCC(=O)N4)C(F)(F)F)cc3)c([C@H](C)OC)c2n1` (relative stereo) [CPD0075581, (2 rel R)-N-methyl-5-oxo-N-[(1S)-2,2,2-trifluoro-1-[4-[6-methoxy-4-[(1 rel S)-1-methoxyethyl]-1,5-naphthyridin-3-yl]amino]phenyl]ethyl]pyrrolidine-2-carboxamide] here?
A: Its IC50 is 29 nM.

Q: `COc1ccc2ncc(Nc3ccc([C@H](N(C)C(=O)[C@@H]4CNC(=O)C4)C(F)(F)F)cc3)c([C@H](C)OC)c2n1` (relative stereo) [CPD0074550, (3 rel S)-N-methyl-5-oxo-N-[(1S)-2,2,2-trifluoro-1-[4-[6-methoxy-4-[(1 rel S)-1-methoxyethyl]-1,5-naphthyridin-3-yl]amino]phenyl]ethyl]pyrrolidine-3-carboxamide] was tested. Which IC50 did it give?
A: The IC50 was 41 nM.

Q: With `COc1ccc2ncc(Nc3ccc([C@H](N(C)C(=O)C4CCS(=O)(=O)CC4)C(F)(F)F)cc3)c([C@@H](C)OC)c2n1` (relative stereo) [CPD0019171, N-methyl-1,1-dioxo-N-[(1S)-2,2,2-trifluoro-1-[4-({6-methoxy-4-[(1 rel R)-1-methoxyethyl]-1,5-naphthyridin-3-yl}amino)phenyl]ethyl]-1λ^6-thiane-4-carboxamide] as the molecule, how does the IC50 read?
A: Its IC50 is 110 nM.

Q: For `COc1ccc2ccc(Nc3ccc([C@H](N(C)C(=O)C4CCS(=O)(=O)CC4)C(F)(F)F)cc3)cc2n1` [CPD0019078, N-methyl-1,1-dioxo-N-[(1S)-2,2,2-trifluoro-1-{4-[(2-methoxyquinolin-7-yl)amino]phenyl}ethyl]-16-thiane-4-carboxamide], which IC50 is on record?
A: Its IC50 is 108 nM.

Q: For `CN(C(=O)C1CCS(=O)(=O)CC1)[C@@H](c1ccc(N2CCCc3c2cnc2cc(Cl)nn32)nc1)C(F)(F)F` [CPD0019212, N-[(1S)-1-(6-{4-chloro-2,3,7,10-tetraazatricyclo[7.4.0.0^2,6]trideca-1(9),3,5,7-tetraen-10-yl}pyridin-3-yl)-2,2,2-trifluoroethyl]-N-methyl-1,1-dioxo-1λ^6-thiane-4-carboxamide], which IC50 is on record?
A: The IC50 was 452 nM.

Q: `COc1ccc2ncc(Nc3ccc([C@H](N(C)C(=O)[C@@H]4CCC(=O)N4)C(F)(F)F)cc3)c([C@H](C)OC)c2n1` (relative stereo) [CPD0075580, (2 rel S)-N-methyl-5-oxo-N-[(1S)-2,2,2-trifluoro-1-[4-[[6-methoxy-4-[(1 rel S)-1-methoxyethyl]-1,5-naphthyridin-3-yl]amino]phenyl]ethyl]pyrrolidine-2-carboxamide] was tested. Which IC50 did it give?
A: The IC50 was 35 nM.

Q: `CN(C(=O)C1CCS(=O)(=O)CC1)[C@@H](c1ccc(N2CC[C@]3(CCOC3)c3c2cnc2cc(Cl)nn32)cc1)C(F)(F)F` [CPD0073763, N-[(1S)-1-[4-[(13rel-S)-4-chlorospiro[2,3,7,10-tetrazatricyclo[7.4.0.0^2,6]trideca-1(9),3,5,7-tetraene-13,3′-tetrahydrofuran]-10-yl]phenyl]-2,2,2-trifluoro-ethyl]-N-methyl-1,1-dioxo-1λ^6-thiane-4-carboxamide] was tested. Which IC50 did it give?
A: Its IC50 is 109 nM.

Q: `CN(C(=O)C1CCS(=O)(=O)CC1)[C@@H](c1ccc(N2CC[C@@]3(CCOC3)c3c2cnc2cc(Cl)nn32)cc1)C(F)(F)F` [CPD0073762, N-[(1S)-1-[4-[(13rel-R)-4-chlorospiro[2,3,7,10-tetrazatricyclo[7.4.0.0^2,6]trideca-1(9),3,5,7-tetraene-13,3′-tetrahydrofuran]-10-yl]phenyl]-2,2,2-trifluoro-ethyl]-N-methyl-1,1-dioxo-1λ^6-thiane-4-carboxamide] was tested. Which IC50 did it give?
A: Its IC50 is 104 nM.
